Literature values, collected in US20050176827A1, “Compositions and methods for glycogen synthesis” (priority 2002, published 2005).

Tested on: pancreatic beta cell
Settings: micromolar concentrations; direct effect on pancreatic beta cell, glucose dependent

## CC(O)C(C)C(N)C(=O)O (stereo not shown) [4-hydroxyisoleucine]
  effect on glucose-induced insulin secretion: stimulate glucose-induced insulin secretion
